Legend:
L1210 = experiment: Cytotoxicity against mouse L1210 cells after 48 hrs by […] assay; format: functional, cell-based; conditions: L1210, 48 h
P388 [1] = experiment: Antitumor activity against mouse P388 cells implanted in B6D2F1 mouse assessed as median survival time at 0.78 mg/kg, ip relative to control; format: functional; conditions: route intraperitoneal
P388 [2] = experiment: Antitumor activity against mouse P388 cells implanted in B6D2F1 mouse assessed as median survival time at 1.56 mg/kg, ip relative to control; format: functional; conditions: route intraperitoneal
P388 [3] = experiment: Antitumor activity against mouse P388 cells implanted in B6D2F1 mouse assessed as median survival time at 3.125 mg/kg, ip relative to control; format: functional; conditions: route intraperitoneal
P388 [4] = experiment: Antitumor activity against mouse P388 cells implanted in B6D2F1 mouse assessed as median survival time at 6.25 mg/kg, ip relative to control; format: functional; conditions: route intraperitoneal
P388 [5] = experiment: Antitumor activity against mouse P388 cells implanted in B6D2F1 mouse assessed as median survival time at 12.5 mg/kg, ip relative to control; format: functional; conditions: route intraperitoneal
P388 [6] = experiment: Antitumor activity against mouse P388 cells implanted in B6D2F1 mouse assessed as median survival time at 25 mg/kg, ip relative to control; format: functional; conditions: route intraperitoneal
P388 [7] = experiment: Antitumor activity against mouse P388 cells implanted in B6D2F1 mouse assessed as median survival time at 200 mg/kg, ip relative to control; format: functional; conditions: route intraperitoneal

`COc1cc2c(c3c1c(=O)c1ccccc1n3C)C(=O)C(O)C(C)(C)O2` (racemic) showed an IC50 (L1210) of 75.1 µM.
`COc1cc2c(c3c1c(=O)c1ccccc1n3C)C(=O)C(O)(CC(C)=O)C(C)(C)O2` (racemic) gave an IC50 (L1210) of 22.5 µM.
With `COc1cc2c(c3c1c(=O)c1ccccc1n3C)[C@@H](O)[C@H](OC(=O)CCl)C(C)(C)O2` (racemic) the IC50 (L1210) was 11 µM.
Molecule `COc1cc2c(c3c1c(=O)c1ccccc1n3C)[C@@H](O)[C@H](OC(C)=O)C(C)(C)O2` (racemic) has an IC50 (L1210) of 8.8 µM.
Work on `COc1cc2c(c3c1c(=O)c1ccccc1n3C)[C@@H](OC(C)=O)[C@H](OC(C)=O)C(C)(C)O2` (racemic) yielded an IC50 (L1210) of 8.7 µM, a T/C (P388 [1]) of 122% and a T/C (P388 [2]) of 136%. The T/C (P388 [3]) was 155%, the T/C (P388 [4]) was 160% and the T/C (P388 [5]) was 181%. The T/C (P388 [6]) was 77%.
With `COc1cc2c(c3c1c(=O)c1ccccc1n3C)[C@@H](OC(C)=O)[C@@H](OC(C)=O)C(C)(C)O2` (relative stereo) the T/C (P388 [6]) was 268%.
Molecule `COc1cc2c(c3c1c(=O)c1ccccc1n3C)C=CC(C)(C)O2` [ACRONINE] has an IC50 (L1210) of 25 µM and a T/C (P388 [7]) of 125%.

From ChEMBL document CHEMBL1159206, “Synthesis and biological activity of esters in the trans-1,2-dihydroxy-1,2-dihydroacronycine series” (J Nat Prod, 1998)
